The nature of series [1]: RP, Waters ACQUITY UPLC BEH C18, 100 × 1 mm, 1.7 µm, 50 °C, 0.3 mL/min, estimated dead time 0.17 min; A: water + 0.1% formic acid + 20 mM ammonium formate; B: methanol + 0.1% formic acid + 20 mM ammonium formate; gradient (min/%B) 0/0 15/100 21/100 22/0 30/0. As to conditions: stereoisomer not certain.
The nature of series [2]: RP, Waters ACQUITY UPLC BEH C18, 100 × 1 mm, 1.7 µm, 50 °C, 0.3 mL/min, estimated dead time 0.17 min; A: water + 10 mM ammonium bicarbonate; B: 10% water + 90% methanol + 10 mM ammonium bicarbonate; gradient (min/%B) 0/0 15/100 21/100 22/0 30/0. Conditions: stereoisomer not certain.

For `COc1nc(C)nc(NC(=O)NS(=O)(=O)c2ccccc2Cl)n1` [Chlorsulfuron], the LC retention time is 12.3 min in series [1] and 9.11 min in series [2].

`CNC(=O)Oc1cc(C)c(S(C)(=O)=O)c(C)c1` [Methiocarb sulfone]: the LC retention time was 9.58 min in series [1] and 9.75 min in series [2].

In the case of `CC12CCC3C(CCC4C(O)C(=O)C=CC43C)C1CCC2=O` (stereo not drawn) [4- Hydroxyandrostenedione], the LC retention time was 11.7 min in series [1] and 11.9 min in series [2].

Consider `Cc1ccc(NS(=O)(=O)N(C)C)cc1` [DMST], for which the LC retention time in series [1] is 12 min; in series [2] it was 12.1 min.

As for `CNC(=O)Oc1cc(C)c(N(C)C)c(C)c1` [Mexacarbate], the LC retention time in series [1] is 8.62 min; in series [2] it was 14.8 min.

On to `CN1CCN=C(c2ccccc2)c2cc(Cl)ccc21` [Medazepam], for which the LC retention time in series [1] was 11.4 min; in series [2], 16.4 min.

As for `NC(=O)N1c2ccccc2CC(O)c2ccccc21` (stereo not drawn) [10,11-Dihydro-10-hydroxycarbamazepine], the LC retention time in series [1] was 10.7 min; in series [2], 10.9 min.

As to `CN(C)c1nc(=O)n(C2CCCCC2)c(=O)n1C` [Hexazinone], the LC retention time is 11.7 min in series [1] and 11.9 min in series [2].

Regarding `CC(=O)c1cc2c(cc1C)C(C)(C)C(C)C2C(C)C` (stereo not drawn) [Traseolide], the values for the LC retention time in series [1] and in series [2] were 17.8 min and 18.2 min, respectively.

For `CC12CCC(=O)C=C1C1CC1C1C2CCC2(C)C1C1CC1C21CCC(=O)O1` (stereo not drawn) [Drospirenone], the LC retention time in series [1] was 14.2 min; in series [2] it was 14.5 min.

In the case of `CCC(=C(c1ccc(O)cc1)c1ccc(OCCN(C)C)cc1)c1ccccc1` [4-Hydroxytamoxifen], the LC retention time in series [1] is 14.3 min; in series [2] it was 17 min.

As for `CNCCC(Oc1cccc2ccccc12)c1cccs1` (stereo not drawn) [Duloxetine], the LC retention time in series [1] is 13.2 min; in series [2], 15.4 min.

Consider `CC(=O)OC1(C(C)=O)CCC2C3CC(C)C4=CC(=O)CCC4(C)C3CCC21C` (stereo not drawn) [Medroxyprogesteroneacetate], for which the results for the LC retention time in series [1] and in series [2] were 15.4 min and 15.8 min, respectively.

Take `CCNS(=O)(=O)c1ccccc1C` [N-Ethyl-o-toluenesulfonamide]: the results for the LC retention time in series [1] and in series [2] were 11.4 min and 11.6 min, respectively.

With `CCN1CCN(c2cc3c(cc2F)c(=O)c(C(=O)O)cn3C2CC2)CC1` [Enrofloxacin], the LC retention time in series [1] was 8.5 min; in series [2] it was 11.4 min.

For `CC=C1CC(C)C(O)(CO)C(=O)OCC2=CC[N+]3([O-])CCC(OC1=O)C23` (stereo not drawn) [Retrorsine N-oxide], the results for the LC retention time in series [1] and in series [2] were 7.74 min and 8.61 min, respectively.

For `N#CC1CCCN1C(=O)CNC12CC3CC(CC(O)(C3)C1)C2` (stereo not drawn) [Vildagliptin], the LC retention time in series [1] is 6.31 min; in series [2], 10.1 min.

With `CON=C(C(=O)O)c1ccccc1CON=C(C)c1cccc(C(F)(F)F)c1`, the LC retention time is 15.6 min in series [1] and 14.5 min in series [2].

Consider `CC12CCC3C(CCC4=CC(=O)CCC43C)C1CCC2=O` (stereo not drawn) [4-Androstene-3,17-dione], for which the LC retention time is 14 min in series [1] and 14.2 min in series [2].

Turning to `CCn1cc(C(=O)O)c(=O)c2cc(F)c(N3CCNCC3)cc21` [norfloxacin], the LC retention time in series [1] is 8.16 min; in series [2] it was 7.5 min.

With `CCCN(CCC)CCc1cccc2c1CC(=O)N2` [Ropinirole], the LC retention time was 8.08 min in series [1] and 15.2 min in series [2].

As for `Cc1cc(=O)oc2cc(N)ccc12` [7-Amino-4-methylcoumarin], the figures for the LC retention time in series [1] and in series [2] were 9.29 min and 9.4 min, respectively.

On to `Cc1ccc(C(C)NC(=O)C(NC(=O)OC(C)C)C(C)C)cc1` (stereo not drawn) [Iprovalicarb], for which the LC retention time is 14.8 min in series [1] and 15.1 min in series [2].

As for `COc1ncnc(NS(=O)(=O)c2ccc(N)cc2)c1OC` [Sulfadoxine], the values for the LC retention time in series [1] and in series [2] were 8.86 min and 6.19 min, respectively.

In the case of `O=C1Nc2ccc(Cl)cc2C(c2ccccc2Cl)=NC1O` (stereo not drawn) [Lorazepam], the LC retention time in series [1] was 13.2 min; in series [2] it was 13.5 min.

For `COC(C)C(O)(C(=O)OCC1=CC[N+]2([O-])CCC(O)C12)C(C)C` (stereo not drawn) [Heliotrine N-oxide], the LC retention time in series [1] is 8.36 min; in series [2] it was 8.96 min.

Turning to `COc1cc(Cl)c(OC)cc1N` [4-Chloro-2,5-dimethoxyaniline], the LC retention time in series [1] was 10.4 min; in series [2], 11.2 min.

For the molecule `CC(=O)C1(O)CCC2C3C=C(Cl)C4=CC(=O)C5CC5C4(C)C3CCC21C` (stereo not drawn) [Cyproterone], the results for the LC retention time in series [1] and in series [2] were 14.6 min and 14.9 min, respectively.

`CN1CCc2cc3c(cc2C(=O)Cc2ccc4c(c2C1)OCO4)OCO3` [Protopin]: the LC retention time in series [1] is 9.28 min; in series [2] it was 13.6 min.

With `C=CCOC(=O)c1ccccc1C(=O)OCC=C` [Diallylphthalate], the LC retention time in series [1] is 14.2 min; in series [2], 14.5 min.

Take `CCCCCCCOC(=O)c1ccccc1C(=O)OCCCCCCC` [Di-n-heptylphthalate]: the LC retention time in series [1] was 18.9 min; in series [2] it was 19.4 min.

Take `O=C(Cc1ccccc1)NC(=NOCC1CC1)c1c(C(F)(F)F)ccc(F)c1F` [Cyflufenamid]: the values for the LC retention time in series [1] and in series [2] were 16 min and 16.3 min, respectively.

For `CN(C)C(=S)SC(=S)N(C)C` [Tetramethylthiuram monosulfide], the LC retention time was 9.49 min in series [1] and 9.63 min in series [2].

With `COc1cc2c(c(OC)c1OC)-c1ccc(OC)c(=O)cc1C(NC(C)=O)CC2` (stereo not drawn) [Colchicine], the LC retention time in series [1] is 11.4 min; in series [2] it was 11.6 min.

For `CC=C1CC(C)C(C)(O)C(=O)OCC2=CCN(C)CCC(OC1=O)C2=O` (stereo not drawn) [Senkirkine], the LC retention time in series [1] was 9.47 min; in series [2] it was 10.2 min.

For `CN1CCC(=C2c3ccccc3CC(=O)c3sccc32)CC1` [Ketotifen], the values for the LC retention time in series [1] and in series [2] were 10.4 min and 14.7 min, respectively.

For the molecule `CCCN(CCOc1c(Cl)cc(Cl)cc1Cl)C(N)=O`, the LC retention time is 15.9 min in series [1] and 16.2 min in series [2].

Take `COCC(=O)N(c1c(C)cccc1C)N1CCOC1=O` [Oxadixyl]: the LC retention time in series [1] was 11 min; in series [2], 11.2 min.

Turning to `COCCOCCOCCOCCOC` [Tetraglyme], the LC retention time in series [1] is 9.01 min; in series [2] it was 9.08 min.

Regarding `CCCc1nc(C(C)(C)O)c(C(=O)O)n1Cc1ccc(-c2ccccc2-c2nn[nH]n2)cc1` [Olmesartan], the LC retention time in series [1] was 10.9 min; in series [2], 10.6 min.

`CC(C)OC(=O)c1ccccc1C(=O)OC(C)C` [Diisopropylphthalate]: the figures for the LC retention time in series [1] and in series [2] were 15.1 min and 15.4 min, respectively.

Turning to `c1ccc(-c2ccc(C(c3ccccc3)n3ccnc3)cc2)cc1` (stereo not drawn) [Bifonazol], the LC retention time is 13.9 min in series [1] and 16.7 min in series [2].

On to `CCC1CCCC(OC2CCC(N(C)C)C(C)O2)C(C)C(=O)C2=CC3C(C=C(C)C4CC(OC5OC(C)C(OC)C(OC)C5OC)CC43)C2CC(=O)O1` (single isomer, unassigned; isomer 2) [Spinosad (Isomer 2)], for which the LC retention time in series [1] is 16.1 min; in series [2] it was 19.2 min.

Regarding `O=C1C(O)Oc2ccccc2N1O` (stereo not drawn) [DIBOA], the results for the LC retention time in series [1] and in series [2] were 7.76 min and 3.05 min, respectively.

On to `Oc1c(Cl)cc(-c2ccc(Cl)cc2)cc1Cl` [4-Hydroxy-3,4',5-trichlorobiphenyl], for which the LC retention time in series [1] was 16.9 min; in series [2], 15.2 min.

As to `COc1cc2c(cc1OC)C13CCN4CC5=CCOC6CC(=O)N2C1C6C5CC43` (stereo not drawn) [Brucine], the values for the LC retention time in series [1] and in series [2] were 8.1 min and 12.1 min, respectively.

Turning to `O=Cc1ccccc1Nc1ccccc1Cl` [2-(2-(Chlorophenyl)amino)benzaldehyde], the LC retention time in series [1] was 15.7 min; in series [2], 16 min.

For `CCCCNC(=O)OCC#CI` [3-Iodopropynyl butylcarbamate], the LC retention time in series [1] is 12.9 min; in series [2], 13.2 min.

For the molecule `CC1CCCC(=O)CCCC=Cc2cc(O)cc(O)c2C(=O)O1` (stereo not drawn) [Zearalenone], the values for the LC retention time in series [1] and in series [2] were 14.4 min and 14.1 min, respectively.

As for `CCC1OC(=O)C(C)C(OC2CC(C)(OC)C(O)C(C)O2)C(C)C(OC2OC(C)CC(N(C)C)C2O)C(C)(O)CC(C)C(=O)C(C)C(O)C1(C)O` (stereo not drawn) [Erythromycin], the LC retention time in series [1] was 13.2 min; in series [2], 15.9 min.

As for `O=c1cccc2n1CC1CNCC2C1` (stereo not drawn) [Cytisin], the results for the LC retention time in series [1] and in series [2] were 2.31 min and 7.53 min, respectively.

Consider `CC1(C)OC2CC3C4CC(F)C5=CC(=O)C=CC5(C)C4C(O)CC3(C)C2(C(=O)CO)O1` (stereo not drawn) [Flunisolide], for which the LC retention time in series [1] is 13.6 min; in series [2], 13.8 min.

For `CCC(=NOCC=CCl)C1=C(O)CC(C2CCOCC2)CC1=O` (single isomer, unassigned; peak1) [Tepraloxydim Peak1], the LC retention time in series [1] was 14.7 min; in series [2], 9.25 min.

In the case of `CN(Cc1nc2c(N)nc(N)nc2[nH]c1=O)c1ccc(C(=O)NC(CCC(=O)O)C(=O)O)cc1` (stereo not drawn) [7-Hydroxymethotrexat], the LC retention time in series [1] was 8.94 min; in series [2], 6.65 min.

Source of the values: the RepoRT retention time repository (doi:10.1021/acs.analchem.1c00972).
